Measurements from patent publication US6630179B1 (priority 1998, dated 2003).
Like-named read-outs stand apart in the source and are kept apart here.

Legend:
[1] = test system: HIV-1 IIIB laboratory strain; assay: HIV-1 IIIB viral growth, different research group, compared to AZT; format: cell-based; settings: HIV-1 IIIB (first-named isolate)
HIV-1 D isolate = HIV-1 D isolate viral growth, different research group, compared to AZT; format: cell-based; settings: HIV-1 D isolate (second-named isolate)
Newcastle disease = format: in vivo, Ross 308 broiler chickens; settings: Baytril 10 mg/kg/day for 3 days in first week, one day at 21 days of age; day 28 and 42
[2] = Study 1511: Subchronic oral toxicity in rats (90 day study); settings: rat, in vivo
[3] = dog, in vivo
Protocol: All animals were euthanased after the 90-day period and a comprehensive post mortem examination, as well as a histopathological evaluation of an extensive list of organs, was performed.

[4] = rat, in vivo

Cc1cn([C@H]2C[C@H](N=[N+]=[N-])[C@@H](CO)O2)c(=O)[nH]c1=O [AZT]
AZT concentration giving the same level of viral growth as oxihumate 25 μg/ml [1]: 0.3 µM | AZT concentration giving the same level of viral growth as oxihumate 25 μg/ml (HIV-1 D isolate): 12.5 µM

CCN1CCN(c2cc3c(cc2F)c(=O)c(C(=O)O)cn3C2CC2)CC1 [Baytril]
titers against Newcastle disease (Newcastle disease): two to four fold increase

Potassium oxihumate
end body mass of male treated animals [2]: statistically significant decrease | circulating lymphocytes ([2]; po): decline | clinical signs ([2]; po): No abnormal clinical signs were observed | pathology and organ masses compared to the control animals ([2]; po): no notable differences | serum globulins ([2]; po): consistent increase | serum inorganic phosphate ([2]; po): decrease | size and haemoglobinization of the red blood cells ([2]; po): drug-related increase | blood chemistry and body masses ([2]; po, 1000 mg/kg/day): Slight alterations in blood chemistry and slight decreases in body masses | overall toxicity assessment [3]: low toxicity | post mortem and histopathological evaluation [3]: did not induce any measurable pathology at the macroscopic and microscopic level | clinical signs of toxicity ([3]; 1200 mg/kg/day): did not induce marked clinical signs of toxicity | clinical pathological parameters ([3]; po): some, but usually small, effects | blood chemistry and body masses ([3]; po, 1200 mg/kg/day): Slight alterations in blood chemistry and slight decrease in body masses | acid-base status [4]: very low grade acid-base disturbance | chemical pathology parameters [4]: altered some of the chemical pathology parameters | overall toxicity assessment ([4]; 1000 mg/kg/day): does not appear to have any serious deleterious effect | pathology, body masses and organ masses compared to the control animals ([4]; 1000 mg/kg/day): no differences
